Article PMC4811302, “Human β-defensin 3 contains an oncolytic motif that binds PI(4,5)P2 to mediate tumour cell permeabilisation” (Oncotarget, 2015)
pIC50: −log10 of the molar value. Where no end group is shown, it is not given here.

Columns and labels:
[1] = test system: tumour lines HeLa, HL-60, Jukat, U937 and PC3; assay: Tetrazolium-based cell viability assay, tumour lines; design: species or system human; conditions: range over HeLa, HL-60, Jurkat, 48 h, MTT (adherent) or MTS/PMS (suspension), estimated, three independent experiments
Description: Human epithelial cervical cancer (HeLa), leukemic monocyte lymphoma (U937), prostate cancer (PC3), promyelocytic leukemia (HL-60), leukemic T cell lymphoblast (Jurkat) cells were cultured in RPMI-1640 medium supplemented with 5–10% (v/v) fetal calf serum (FCS), 100 U/mL penicillin and 100 μg/mL streptomycin (Invitrogen, Carlsbad, CA). Human umbilical vein […] cell (HUVEC) cells were cultured in M199 medium (Invitrogen) supplemented with 20% (v/v) FCS, 40 μg/mL gentamicin, 4 μg/mL endothelial cell growth factor, 4 μg/mL L-glutamine and 135 μg/mL heparin, in 0.1% (w/v) gelatin-coated Corning CELLBIND flask (Corning Life Sciences, Acton, MA). […]
Different concentrations of HBD-3 were added to cells seeded in 96-well plates in appropriate complete medium. […] After 48 h, cell viability was determined using 3-(4,5-dimethylthiazol-2-yl)-2,5-diphenyltetrazolium bromide (MTT) (Sigma-Aldrich, MO) for adherent cells (HeLa, PC3, HUVEC, AHDF, CASMC) or 3-(4,5-dimethylthiazol-2-yl)-5-(3-carboxymethoxyphenyl)-2-(4-sulfophenyl)-2H-tetrazolium (MTS) (Promega, Madison, WI) coupled with phenzine methosulfate (PMS) (Promega) for suspension cells (U937, HL-60, Jurkat) prior to absorbance measurement at 570 nm and […], respectively. Absorbance readings of untreated control wells was designated as 100% cell viability.

U937 cells [2] = assay: Flow cytometry-based PI uptake assay, U937; type: cell-based, human; conditions: 25 μM HBD-3, 37°C, 30 min, serum-free medium with 0.1% BSA
Description: (§1) Cells suspended at 1×10^6 cells/mL in serum-free medium containing 0.1% (w/v) bovine serum albumin (BSA) (Sigma-Aldrich) were treated with HBD-3 at 37°C for 30 min. Nucleic acid stain propidium iodide (PI) was then added to a final concentration of 1 μg/mL and cells subjected to flow cytometry analysis using BD FACSCanto II Flow Cytometer and BD FACSDiva Software v6.1.1 (BD Biosciences, San Jose, CA). For each flow cytometry reading, 10,000 cells, gated appropriately based on forward scattering and side scattering, were recorded. The resultant data were processed using FlowJo software (Tree Star, San Carlos, CA) to determine PI-positivity, which reflects the level of membrane permeabilisation. For lipid inhibition assays, 15 μM HBD-3 was pre-incubated with 50 μM synthetic lipids, including L-α-phosphatidic acid (PA), L-α-phosphatidylcholine (PC), L-α-phosphatidylethanolamine (PE), L-α-phosphatidylserine (PS), L-α-phosphatidylinositol-4-phosphate (PI(4)P), L-α-phosphatidylinositol-3,5-bisphosphate (PI(3,5)P2), L-α-phosphatidylinositol-4,5-bisphosphate (PI(4,5)P2) and L-α-phosphatidylinositol-3,4,5-trisphosphate (PI(3,4,5)P)3. All lipids were sourced from Avanti Polar Lipids, Alabaster, AL. […]

HUVEC cells = assay: Flow cytometry-based PI uptake assay, HUVEC; type: cell-based, human; conditions: 25 μM HBD-3, 37°C, 30 min, serum-free medium with 0.1% BSA
Description: as §1

[3] = Protein-lipid overlay assay, Membrane strip; type: binding; conditions: 1 μg/mL protein, immunodetection, densitometry
Description: (§2) Protein-lipid overlay assays using Membrane strip™ or PIP strip™ (Echelon Biosciences, Salt Lake City, UT) were performed using 1 μg/mL proteins as described previously. Lipid binding was immunodetected using a combination of rabbit anti-HBD-3 IgG (50 μg/mL) and horseradish peroxidase-conjugated donkey-anti-rabbit Ig (10 μg/mL) antibodies. Chemiluminescence signal intensity was quantitated by densitometry analysis using ImageJ (National Institutes of Health, Bethesda, MD; http://imagej.nih.gov/ij/).

[4] = Protein-lipid overlay assay, PIP strip; type: binding; conditions: 1 μg/mL protein, immunodetection, densitometry
Description: as §2

[5] = test system: plasma membrane PI(4,5)P2 of U937 cells; assay: Anti-PI(4,5)P2 antibody blocking assay; type: cell-based, human; conditions: 15 μM defensins 30 min or 10 mM neomycin 3 h; cells fixed, saponin-lysed, FITC-conjugated anti-PI(4,5)P2 IgM, flow cytometry
Description: U937 cells at 1×10^6 cells/mL were treated with 10 mM neomycin for 3 h and/or 15 μM defensins for 30 min in serum-free RPMI 1640 medium containing 0.1% BSA, followed by 20 min fixation with 2% (v/w) paraformaldehyde (Sigma-Aldrich), 10 min lysis with 0.5% (w/v) saponin (Sigma-Aldrich), and then 30 min blocking with 3% (w/v) BSA. Three 5-min centrifugal washes with PBS at 500 g were also included between steps. FITC-conjugated mouse anti-PI(4,5)P2 IgM (Echelon Biosciences) or IgM control (GeneTex, Irvine, CA) was subsequently used at 10 μg/mL for 30 min prior to flow cytometry analysis.

[6] = ATP-encapsulated liposome leakage assay, PC:PI(4,5)P2; conditions: PC liposomes containing 5% PI(4,5)P2, concentration-dependent, compared with PC only
Description: Liposomes were generated as described previously using natural PI(4,5)P2 (porcine brain, in chloroform:methanol:water at 20:9:1 molar ratio) and PC (chicken egg, in chloroform) purchased from Avanti Polar Lipids. PC only or PC:PI(4,5)P2 (95:5 molar ratio) solutions were dried under a stream of nitrogen gas followed by overnight vacuum-drying. The lipid films were rehydrated to a final concentration of 5 mg/mL in 20 mM HEPES (pH 7.2) containing 5 mg/mL adenosine-5-triphosphate disodium salt (ATP; Sigma-Aldrich) at 37°C for 1 h. After three subsequent cycles of freezing (liquid nitrogen) and thawing (25°C), multilamellar liposomes were extruded 15–20 times through a mini-extruder (Avanti Polar Lipids). Free ATP was removed by three centrifugal washes with 20 mM HEPES at 16,500 g prior to the ATP release assay. Liposomes treated with 1% Triton X-100 were included as positive control and assigned as total lysis, whereas HEPES only control served as background reading. The level of ATP release at a particular time point was determined by quotient of the corrected reading (after subtracting background) of the sample at that time point and corrected reading of total lysis, as per the following equation: % Lysist=Samplet−HEPESt/Triton X−HEPES×100

U937 cells [7] = assay: Neomycin inhibition of membrane permeabilisation (PI uptake); type: cell-based, human; conditions: cells pre-treated with 10 mM neomycin, PI uptake by flow cytometry; effect overcome at higher HBD-3 concentrations
Description: as §1

For “human β-defensin 3 (GIINTLQKYYCRVRGGRCAVLSCLPKEEQIGKCSTRGRKCCRRKK; not fully specified; cysteine pairing not given here; UniProt P81534 23-67, looked up) [HBD-3, human β-defensin 3, cationic antimicrobial peptide, recombinantly expressed in P. pastoris]”, the pIC50 [1] was 4.70 to 5.10, the PI-positive cells (U937 cells [2]) was “approximately 85%” and the PI-positive cells (HUVEC cells) was 14.5%. The “relative binding intensity to lipids on Membrane strip” value [3] was “greater relative binding intensity toward phospholipids”, the “binding to phosphoinositides/lipids on PIP strip” value [4] was “most strongly, PA and all phosphoinositides” and the “blocking of anti-PI(4,5)P2 antibody binding (overall fluorescence intensity vs untreated control)” value [5] was “significant decrease of overall fluorescence intensity”. For the same substance, the “ATP release from ATP-encapsulated liposomes” value [6] was “much higher level of ATP was released” and the “susceptibility of neomycin pre-incubated cells to permeabilisation compared to untreated control” value (U937 cells [7]) was “significantly less susceptible”.
